Source: patent US6559125B1, “Polyamide-alkylator conjugates and related products and method” (priority 2000, dated 2003)

Key:
[1] = water, pH 7.5, 37° C.; cited from earlier work
DNA = details: from previous reports; cited from earlier work
[2] = tested on: match binding sites (5′-WGCWGCW-3′) on a 241 bp restriction fragment derived from the HIV-1 promoter region; experiment: Quantitative DNase I footprint titration; details: for equilibrium association constant Ka: 22° C., pH 7.0
Protocol: Jones, K. A. & Peterlin, B. M. (1994), Annual Review of Biochemistry 63, 717-743. Left, storage phosphor autodiograms of 8% denaturing polyacrylamide gels used to separate the fragments generated by DNase I digestion. All reactions contained 20,000 cpm restriction fragment, 10 mM Tris.HCl (pH 7.0), 10 mM KCl, 10 MM MgCl2 and 5 mM CaCl and were performed at 22° C. Lane 1, intact DNA; lane 2, A-specific reaction; lane 3, G-specific reaction; lane 4, DNase I standard; lanes 5-17, 1 pM, 2 pM, 5 pM, 10 pM, 20 pM, 50 pM, 100 pM, 200 pM, 500 pM, 1 nM, 2 nM, 5 nM, 10 nM, respectively. The 5′-AGCTGCT-3′ (A), 5′-TGCAGCA-3′ (B), and 5′-TGCTGCT-3′ (E) match sites are shown in boxes on the right side of the autoradiogram (SEQ ID NO:4).
FIG. 5(b) depicts data from quantitative DNase I footprint titration experiments for ImPy-β-ImPy-(R)^CHL(OH)γ-ImPy-βImPy-β-Dp (3) binding to the 5′-AGCTGCT-3′ (A) and 5′-TGCAGCA-3′ sites (B). θnorm points were obtained using storage phosphor autoradiography and processed as described in the experimental section The data for the binding of 3 to 5′-AGCTGCT-3′ is indicated by red circles and binding to 5′-TGCAGCA-3′ by blue circles. The solid curves are best-fit Langmuir binding titration isotherms obtained from a nonlinear least-squares algorithm eq 2 (n=1).
All reactions were executed in a total volume of 400 μl. […]
Data from the footprint titration gels were obtained using a Molecular Dynamics 400S PhosphorImager followed by quantitation using ImageQuant software (Molecular Dynamics). […] The apparent fractional occupancy (θapp) of the sites were calculated using the equation: [formula] […]
where [L]tot is the total polyamide concentration, Ka is the equilibrium association constant, and θmin and θmax are the experimentally determined site saturation values when the site is unoccupied or saturated, respectively. […]

HIV = details: cell culture; cited from earlier work
[3] = tested on: match binding sites (5′-WGCWGCW-3′) on a 241 bp restriction fragment derived from the HIV-1 promoter region; details: sequence 5′-WGCWGCW-3′ in the HIV promoter; literature value; cited from earlier work

O=C(O)CCCc1ccc(N(CCCl)CCCl)cc1 [chlorambucil, 4-[bis(2-chloroethyl)amino]benzene butanoic acid]
half life for hydrolysis of the bis(dichloroethylamino)benzene moiety [1]: approximately 1.3 hours

ImImPyPy-(R)^H^2^Nγ-ImPyPyPy-β-Dp [polyamide 1′]
binding affinity (DNA): subnanomolar

ImPy-β-ImPy-(R)^CHL(OH)γ-ImPy-β-ImPy-β-Dp [compound 3]
equilibrium association constant Ka ([2]; match site 5′-AGCTGCT-3′): 1.6±0.7×10^10 M^−1
equilibrium association constant Ka ([2]; match site 5′-TGCAGCA-3′): 1.3±0.7×10^10 M^−1
affinities for double base pair mismatch sites, fold lower than for the match sites ([2]; mismatch sites 5′-TGTCGCC-3′ and 5′-AGCAGCTC-3′): > 100 fold

ImPy-β-ImPy-γ-ImPy-β-ImPy-β-Dp [polyamide 1]
inhibition of HIV replication (HIV): inhbit HIV replication
binding affinity Ka of unsubstituted polyamide [3]: 2e+10 M⁻¹
